Where two headings read alike, the source gives them in different places.
Key:
Capan-2 cells = test: MTT cell survival assay on Capan-2 cells; assay type: cell-based; details: for inhibition at 50 µM: Homo sapiens, Capan-2, 48 h, read-out: Inhibition effect on Capan-2 at 50 μM (%); for cell viability / cells die: FIG. 2
Description: For Capan-2 cell lines, the cells were cultured in RPMI 1640 medium supplemented with 10% FBS and 1% glutamine. Cells were seeded at a densitiy of 20,000 cells per well in 96 well View Plate™ (Packard) in 250 μl of medium containing the same components as described above.
(§1) Cells were allowed to adhere and proliferate for 24 hr. At that time, culture medium was removed and serial dilutions from 10 nM to 200 μM of the test compounds were added in culture medium. Gemcitabine and no treatment were included as positive and negative controls. Plates were further incubated at 37° C. and 5% CO2 for 48 hours. The number of viable cells remaining after the appropriate treatment was determined by Colorimetric Assay (3-(4,5-dimethylthiazol-2-yl)-2,5-diphenyl tetrazolium bromide, MTT).
(§2) Inhibition of MiaPaCa and Capan-2 cells were tested at different doses of compounds of the invention: 50 μM, 100 μM and 200 μM.
(§3) Cells were seeded on 96-well plates in 250 μL media and 24 hours later, compound to be tested was added in 250 μL of media to the desired final concentration (from 10 nM to 200 μM). After 48 hours, the number of viable cells remaining after the appropriate treatment was determined by MTT. Minimum Efficient Dose (MED) and IC50 values was evaluated from the dose-dependency study. The results in FIGS. 1, 2, 4 and 5 are presented in percentage of cell growth inhibition compared to control non treated cells.

MiaPaCa cells [1] = test: MTT cell survival assay on MiaPaCa cells; assay type: cell-based; details: for inhibition at 50 µM: Homo sapiens, MIA PaCa-2, 48 h
Description: Pancreactic cancer cell lines, MiaPaCa cells were cultured in DMEM medium (Gibco) supplemented with 10% fetal bovine serum (FBS). Cells were seeded at a densitiy of 15,000 cells per well in 96 well View Plate™ (Packard) in 250 μl of medium containing the same components as described above.
as §1, §2, §3

p-8 mRNA = p-8 mRNA expression in MiaPaCa-2 cells by quantitative RT-PCR; assay type: cell-based; details: FIG. 12
From the text: The stress-associated protein, p-8 with antiapoptotic properties was strongly expressed in two of the most resistant pancreactic cancer cell lines, while Heat Shock Protein 27 (Hsp27) is a protein which can be over-expressed in many tumor cells and protects against apoptotic cell death triggered by various stimuli. So in order to study the intracellular target of the active compounds, the effect of the active compounds on the expression of p-8 and Hsp27 mRNA in MiaPaCa-2 cells were investigated by quantitative RT-PCR. First-strand cDNA was synthesized in 20 μL reaction with 1 μg total RNA using Expand Reverse Transcriptase (Roche, Meylan, France) following the instructions of the manufacturer. Quantitative PCR was done with the Light Cycler system (Roche) and Takara (Berkeley, Calif.) reagents. Five microliters of 10-fold diluted cDNA were mixed with 10 μL SYBR Premix Ex Taq (including Taq polymerase, reaction buffer, MgCl2, SYBR green I dye, and deoxynucleotide triphosphate mix) and […] forward and reverse primers (TBP primers are used as a control) in a volume of 20 μL. […] Each sample was analyzed in duplicate and the experiment was repeated twice. Results were analyzed using RelQuant (Roche) and expressed as percent of control values.

MiaPaCa-2 cells = test: Combination effect with gemcitabine in vitro, MTT assay on MiaPaCa-2 cells; assay type: cell-based; details: combined with gemcitabine, MiaPaCa-2, FIG. 9
From the text: FIG. 9 illustrates the beneficial combination effect of compounds (1, 4 or 18) in vitro based on the results obtained by using a MTT assay on MiaPaCa-2 cells.
Three compounds (compounds n^o 1, 4 and 18) combined with gemcitabine were accessed their anticancer activity.

pancreatic cancer = pancreatic cancer patients, first-line treatment; cited from earlier work
[2] = test system: MiaPaCa-2-xenografed tumors; test: MiaPaCa-2 xenograft tumor growth in nude mice; assay type: in vivo
Description: The antitumor effects of the active compounds 1 and 4 were evaluated in nude mice bearing MiaPaCa-2-xenografed tumors. Institutional guidelines for the proper and human use of animals in research were followed. Approximately 1×10^7 MiaPaCa-2 cells were inoculated subcutaneously with 0.1 mL of Matrigel (BD Biosciences Discovery Labware) to 6-week-old male xenografed nude mice. When MiaPaCa-2 tumors reached 100 mm^3, mice were randomly selected for treatment with test compound and no treated mice were used as control. Each experimental group consisted of 8 mice. After randomization, 150 mg/kg test compound was injected every three days by i.p. injection for 5 weeks. The combination injection was performed every two days. Tumor volume measurements were performed once weekly and calculated by the formula length×width×depth×0.5236.

MiaPaCa cells [3] = test: Apoptosis evaluation on MiaPaCa cells by flow cytometry (sub-G0 ratio); assay type: cell-based; details: 24 h after administration, FIG. 3
Description: Cells were plated in 10 cm dishes at the density of 300 000 cells/plate. Cells were stopped for flow cytometry analysis 12, 24 and 48 h post-treatment. After trypsination, cell pellet was washed with PBS and fixed in cold-ethanol 70% overnight at 4° C. After a wash with phosphate-citrate buffer, cells were treated with 200 μL RNA-ase (500 μg/mL), labeled with 1 mL propidium iodide (50 μg/mL), and immediately analyzed by flow cytometry (FACS Calibur, Becton Dickinson, Le Pont-De-Claix, France). Cell death analysis was done on 1,000,000 cells, evaluating the sub-G0 ratio. Each sample was performed in triplicate.

[4] = 50 μM, 48 hours, MTT, Table III
[5] = 50 μM, 48 hours, MTT, Table III, read-out: Inhibition effect on MiaPaCa-2 at 50 μM (%)
[6] = 50 μM, 48 hours, MTT, Table II, read-out: Inhibition effect on MiaPaCa at 50 μM (%)

`NC(=O)c1nc(-c2cn(-c3cccc4ccccc34)nn2)n(COCCO)n1` [Compound 21, 1-((2-hydroxyethoxy)methyl)-5-(1-(naphthalen-1-yl)-1H-1,2,3-triazol-4-yl)-1H-1,2,4-triazole-3-carboxamide] gave an inhibition at 50 µM (Capan-2 cells; [4]) of 55.6% and an inhibition at 50 µM (MiaPaCa cells [1]; [5]) of 30.9%.
In the case of `COC(=O)c1nc(-c2cn(Cc3ccc4ccc5cccc6ccc3c4c56)nn2)n(COCCOC(C)=O)n1` [Compound 18, Methyl 1-((2-acetoxyethoxy)methyl)-5-(1-((pyren-3-yl)methyl)-1H-1,2,3-triazol-4-yl)-1H-1,2,4-triazole-3-carboxylate], the “p-8 mRNA expression” value (p-8 mRNA; single treatment) is reported as “significantly inhibit”, the inhibition at 50 µM (Capan-2 cells; [4]) is reported as over 50% and the “antiproliferation in combination with gemcitabine” value (MiaPaCa-2 cells) is reported as “more efficiency on antiproliferation”.
With `NC(=O)c1nc(C#Cc2ccc(Br)cc2)n(COCCO)n1` [Compound 14, 1-((2-hydroxyethoxy)methyl)-5-(2-(4-bromophenyl)ethynyl)-1H-1,2,4-triazole-3-carboxamide] the inhibition at 50 µM (Capan-2 cells; [4]) was over 50% and the inhibition at 50 µM (MiaPaCa cells [1]; [5]) was over 50%.
For `NC(=O)c1nc(-c2cn(Cc3ccc4ccc5cccc6ccc3c4c56)nn2)n(COCCO)n1` [Compound 19, 1-((2-hydroxyethoxy)methyl)-5-(1-((pyren-3-yl)methyl)-1H-1,2,3-triazol-4-yl)-1H-1,2,4-triazole-3-carboxamide], the inhibition at 50 µM (Capan-2 cells; [4]) was 43.4% and the inhibition at 50 µM (MiaPaCa cells [1]; [5]) was 59.3%.
For `CCCCCCCCCCCCn1cc(-c2nc(C(N)=O)nn2COCCO)nn1` [Compound 17], the “Inhibition effect on Capan-2 at 50 μM (%)” value (Capan-2 cells; [4]) was 29.5% and the “Inhibition effect on MiaPaCa-2 at 50 μM (%)” value (MiaPaCa cells [1]; [4]) was 43.2%.
`NC(=O)c1nc(-c2cn(Cc3ccc4ccc5cccc6ccc3c4c56)nn2)nn1COCCO` [Compound 20, 1-((2-hydroxyethoxy)methyl)-3-(1-((pyren-3-yl)methyl)-1H-1,2,3-triazol-4-yl)-1H-1,2,4-triazole-5-carboxamide] gave an inhibition at 50 µM (Capan-2 cells; [4]) of 60.6% and an inhibition at 50 µM (MiaPaCa cells [1]; [5]) of 28.7%.
`COC(=O)c1nc(-c2cn(-c3ccc4ccc5cccc6ccc3c4c56)nn2)n(COCCOC(C)=O)n1` [Compound 22, Methyl 1-((2-acetoxyethoxy)methyl)-5-(1-(pyren-3-yl)-1H-1,2,3-triazol-4-yl)-1H-1,2,4-triazole-3-carboxylate] gave an inhibition at 50 µM (Capan-2 cells; [4]) of 63.9% and an inhibition at 50 µM (MiaPaCa cells [1]; [5]) of 40.7%.
For `Nc1ccn([C@@H]2O[C@H](CO)[C@@H](O)C2(F)F)c(=O)n1` [Gemcitabine, reference compound], the cell viability (Capan-2 cells; Capan-2, with dose increase) was “cell viability stagnates”, the inhibition at 50 µM (Capan-2 cells; 50 μM, 48 hours, MTT, Table II) was 61.7% and the inhibition at 50 µM (Capan-2 cells; [4]) was 61.7%. The inhibition at 50 µM (MiaPaCa cells [1]; [6]) was 29.3%, the inhibition at 50 µM (MiaPaCa cells [1]; [5]) was 29.3% and the cells remaining alive (MiaPaCa cells [1]; MiaPaCa, 50 μM or 100 μM, FIG. 1) was “about 80%”. The response (pancreatic cancer) was 12%.
`NC(=O)c1nc(C#Cc2ccc(C(F)(F)F)cc2)n(COCCOC(=O)c2ccccc2)n1` [Compound 15, 1-[(2-(benzoyloxy)ethoxy)methyl]-5-(2-(4-trifluoromethylphenyl)ethynyl)-1H-1,2,4-triazole-3-carboxamide] gave an inhibition at 50 µM (Capan-2 cells; [4]) of over 50% and an inhibition at 50 µM (MiaPaCa cells [1]; [5]) of over 50%.
For `COC(=O)c1nc(C#Cc2ccc(C(F)(F)F)cc2)n([C@@H]2O[C@H](COC(C)=O)[C@@H](OC(C)=O)[C@H]2OC(C)=O)n1` [Compound 1, Methyl 5-(4-trifluoromethylphenylethynyl)-1-(2,3,5-tri-O-acetyl-β-D-ribofuranosyl)-1H-[1,2,4]triazole-3-carboxylate], the “p-8 mRNA expression” value (p-8 mRNA; combination with gemcitabine) was “down-regulated”, the cells die (Capan-2 cells; Capan-2, 50 μM) was “about 60%” and the cells die (Capan-2 cells; Capan-2, 100 μM) was “more than 80%”. The inhibition at 50 µM (Capan-2 cells; 50 μM, 48 hours, MTT, Table II) was over 50%, the “antiproliferation in combination with gemcitabine” value (MiaPaCa-2 cells) was “more efficiency on antiproliferation” and the MiaPaCa-2 tumor volume ([2]; 150 mg/kg i.p. every three days for 5 weeks, compound alone, FIG. 10) was “reduce MiaPaCa-2 tumor volume”. For the same compound, the “adverse effect of drug treatment” value ([2]; alone or in combination with gemcitabine, nude mice, FIG. 11) was “absence of adverse effect”, the tumor growth ([2]; combined with gemcitabine, injection every two days, FIG. 10) was “almost sinificantly inhibited” and the inhibition at 50 µM (MiaPaCa cells [1]; [6]) was over 50%. For the same compound, the cells die (MiaPaCa cells [1]; MiaPaCa, 50 μM, FIG. 1) was “about 60%”, the “apoptosis compared to cells treated with gemcitabine” value (MiaPaCa cells [3]) was “about 4 times” and the “apoptosis compared to non-treated cells” value (MiaPaCa cells [3]) was “about 8 times”.
In the case of `COC(=O)c1nc(C#CC2=CCCCC2)n([C@@H]2O[C@H](COC(C)=O)[C@@H](OC(C)=O)[C@H]2OC(C)=O)n1` [Compound 2, Methyl 5-(Cyclohexenylethynyl)-1-(2,3,5-tri-O-acetyl-β-D-ribofuranosyl)-1H-[1,2,4]triazole-3-carboxylate], the cell viability (Capan-2 cells; Capan-2, doses higher than 100 μM) is reported as “cell viability rapidly decreases”, the inhibition at 50 µM (Capan-2 cells; 50 μM, 48 hours, MTT, Table II) is reported as 57.6% and the inhibition at 50 µM (MiaPaCa cells [1]; [6]) is reported as 21.3%.
